# Results published in the supplement of paper PMC10307832.
# Columns and labels:
# Assay in all cases: relative viability (nuclei count vs DMSO), 5 days (fraction); higher = more cells survive
# Crizotinib + Vorinostat = compound: C[C@@H](Oc1cc(-c2cnn(C3CCNCC3)c2)cnc1N)c1c(Cl)ccc(F)c1Cl [Crizotinib] + O=C(CCCCCCC(=O)Nc1ccccc1)NO [Vorinostat] (partner 1 µM)
# Method in brief: (§1)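 Relative viability divides the nuclei count in treated wells by that in vehicle wells. Lung cancer cell lines were seeded in 1536-well plates, dosed by pin tool the next day, and fixed and stained after 5 days in one step with final 0.05% Triton X-100, 1% formaldehyde and 1 ug/ml Hoechst. Dosing was a single drug or a fixed anchor-drug dose plus five library-drug doses (not always all listed) in √10 steps, and values are medians of duplicate plates imaged at 4×.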
# Carfilzomib + OSI-027 = compound: CC(C)C[C@H](NC(=O)[C@H](CCc1ccccc1)NC(=O)CN1CCOCC1)C(=O)N[C@@H](Cc1ccccc1)C(=O)N[C@@H](CC(C)C)C(=O)[C@@]1(C)CO1 [Carfilzomib] + COc1cccc2cc(-c3nc([C@H]4CC[C@H](C(=O)O)CC4)n4ncnc(N)c34)[nH]c12 [OSI-027] (partner 0.5 µM)
# Method in brief: as §1
# Olaparib + Pictilisib = compound: O=C(c1cc(Cc2n[nH]c(=O)c3ccccc23)ccc1F)N1CCN(C(=O)C2CC2)CC1 [Olaparib] + CS(=O)(=O)N1CCN(Cc2cc3nc(-c4cccc5[nH]ncc45)nc(N4CCOCC4)c3s2)CC1 [Pictilisib] (partner 1 µM)
# Method in brief: as §1
# Carfilzomib + Olaparib = compound: CC(C)C[C@H](NC(=O)[C@H](CCc1ccccc1)NC(=O)CN1CCOCC1)C(=O)N[C@@H](Cc1ccccc1)C(=O)N[C@@H](CC(C)C)C(=O)[C@@]1(C)CO1 [Carfilzomib] + O=C(c1cc(Cc2n[nH]c(=O)c3ccccc23)ccc1F)N1CCN(C(=O)C2CC2)CC1 [Olaparib] (partner 8 µM)
# Method in brief: as §1
Cell Line,relative viability (Crizotinib + Vorinostat; first compound 0.01 µM),relative viability (Crizotinib + Vorinostat; first compound 0.03162 µM),relative viability (Crizotinib + Vorinostat; first compound 0.1 µM),relative viability (Crizotinib + Vorinostat; first compound 0.3162 µM),relative viability (Crizotinib + Vorinostat; first compound 1 µM),relative viability (Carfilzomib + OSI-027; first compound 0.001 µM),relative viability (Carfilzomib + OSI-027; first compound 0.003162 µM),relative viability (Carfilzomib + OSI-027; first compound 0.01 µM),relative viability (Carfilzomib + OSI-027; first compound 0.03162 µM),relative viability (Carfilzomib + OSI-027; first compound 0.1 µM),relative viability (Olaparib + Pictilisib; first compound 0.08 µM),relative viability (Olaparib + Pictilisib; first compound 0.253 µM),relative viability (Olaparib + Pictilisib; first compound 2.53 µM),relative viability (Olaparib + Pictilisib; first compound 8 µM),relative viability (Carfilzomib + Olaparib; first compound 0.001 µM),relative viability (Carfilzomib + Olaparib; first compound 0.003162 µM),relative viability (Carfilzomib + Olaparib; first compound 0.01 µM),relative viability (Carfilzomib + Olaparib; first compound 0.03162 µM),relative viability (Carfilzomib + Olaparib; first compound 0.1 µM)
ChaGo-K-1,0.703,0.706,0.712,0.4,0.727,0.414,0.576,0.659,0.554,0.176,1.27,0.674,0.75,0.661,0.447,0.409,0.392,0.172,0.142
EBC-1,–,–,–,–,–,–,–,–,–,–,0.392,0.345,0.368,0.304,0.721,0.63,0.191,0.0599,0.082
EKVX,0.455,0.662,0.708,0.712,0.637,0.689,0.754,0.834,0.601,0.315,0.493,0.444,0.41,0.477,0.854,0.908,1.02,–,0.231
EMC-BAC-2,0.524,0.418,0.494,–,0.365,0.378,0.448,0.409,0.242,0.197,0.662,0.5,0.524,0.496,0.484,0.454,0.561,0.411,0.249
EPLC-272H,0.41,0.398,0.361,0.403,0.581,0.284,0.291,0.248,0.119,0.0723,0.311,0.284,0.278,0.283,0.825,0.864,0.302,0.0584,0.0607
H3255,0.782,0.841,0.765,0.784,0.999,0.581,0.536,0.65,0.584,0.237,0.478,0.406,0.445,0.386,0.565,0.609,0.668,0.402,0.235
HARA,0.494,0.491,0.532,0.54,0.523,0.537,0.564,0.675,0.0444,0.0712,0.407,0.454,0.567,0.37,1.25,0.943,1.2,0.0637,0.0917
HCC-15,0.802,0.875,0.926,0.847,0.875,0.706,0.801,0.763,0.279,0.0802,0.866,0.647,0.678,0.627,0.73,0.771,0.75,0.551,0.166
HCC-44,1.03,1.13,1.18,1.01,1.14,0.48,0.564,0.574,0.338,0.217,0.697,0.552,0.7,0.544,1.07,0.975,0.985,1.03,0.637
